We go through four molecules from publication PMC6757289, “Design and Characterization of SGK3-PROTAC1, an Isoform Specific SGK3 Kinase PROTAC Degrader” (ACS Chemical Biology, 2019).

One assay deals with MAPKAP-K2 (Homo sapiens, UniProt P49137). The assay is described as follows: kinase profiling panel. The following applies: read-out: % Activity Remaining. It is filed as biochemical. The text has this:
(§1) Protein kinase profiling against a Dundee panel of 140 protein kinases was undertaken at the International Centre for Protein Kinase Profiling. The result for each kinase was presented as a mean kinase activity of the reaction taken in triplicate relative to a control sample treated with DMSO. Assay conditions and abbreviations are available at http://www.kinase-screen.mrc.ac.uk.

In the next assay the target is MKK1 (Homo sapiens, UniProt Q02750). The assay is described as follows: kinase profiling panel. It is filed as biochemical. The following applies: read-out: % Activity Remaining.
Text: as §1

In the next assay the target is RIPK2 (Homo sapiens, UniProt O43353). Nature of the assay: kinase profiling panel. It is filed as biochemical. Particulars: read-out: % Activity Remaining.
Text: as §1

For another assay, the target named is T1, TAK1 (Homo sapiens, UniProt O43318).
T1 sequence (O43318 1-303 limits assumed): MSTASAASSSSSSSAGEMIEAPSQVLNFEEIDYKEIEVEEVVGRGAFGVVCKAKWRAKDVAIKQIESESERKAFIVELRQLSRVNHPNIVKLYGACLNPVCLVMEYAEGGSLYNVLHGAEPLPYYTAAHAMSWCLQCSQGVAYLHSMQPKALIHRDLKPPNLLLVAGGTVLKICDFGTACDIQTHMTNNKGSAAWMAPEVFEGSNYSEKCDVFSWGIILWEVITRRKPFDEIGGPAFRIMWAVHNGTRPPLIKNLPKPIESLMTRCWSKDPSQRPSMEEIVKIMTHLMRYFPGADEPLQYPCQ
The assay is described as follows: kinase profiling panel. The following applies: read-out: % Activity Remaining. It is filed as biochemical.
Text: as §1

For the next assay, the target named is T2, TSSK1 (Homo sapiens, UniProt Q9BXA7).
T2 sequence (Q9BXA7 1-367): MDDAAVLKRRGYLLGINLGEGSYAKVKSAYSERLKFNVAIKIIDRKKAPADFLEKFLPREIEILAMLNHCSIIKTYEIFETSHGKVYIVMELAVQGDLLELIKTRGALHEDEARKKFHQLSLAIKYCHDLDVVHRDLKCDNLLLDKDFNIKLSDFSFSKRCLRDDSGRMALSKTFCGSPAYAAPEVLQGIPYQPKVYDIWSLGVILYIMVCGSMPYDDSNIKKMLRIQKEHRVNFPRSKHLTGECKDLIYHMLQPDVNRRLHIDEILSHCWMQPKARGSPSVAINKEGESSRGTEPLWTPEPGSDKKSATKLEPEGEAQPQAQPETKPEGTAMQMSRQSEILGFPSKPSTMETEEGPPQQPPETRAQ
Nature of the assay: kinase profiling panel. It is filed as biochemical. The following applies: read-out: % Activity Remaining.
Text: as §1

The test system of assay [1] is phosphorylation of NDRG1 at Thr346. The assay is described as follows: NDRG1 phosphorylation in HEK293 cells, immunoblot. The class given is cell-based. The following applies: HEK293, 8 h; for pNDRG1 phosphorylation: basal, no inhibition of Akt. The method, then: Figure 3 Characterization of cellular activities of SGK3-PROTAC1 and cisSGK3-PROTAC1. (A) HEK293 cells were first treated for 8 h with 0.03–3 μM SGK3-PROTAC1 and cisSGK3-PROTAC1. One hour before lysis, cells were treated with 3 μM AZD5363. Lysates were subjected to immunoblot analysis with the indicated antibodies. […] Lysates were subjected to immunoblot analysis with the indicated antibodies. (C) HEK293 cells were treated for up to 48 h with SGK3-PROTAC1 (0.3 μM), and lysates were analyzed by immunoblot analysis using the indicated antibodies. (D) HEK293 cells were treated for 24 h with SGK3-PROTAC1. Cells were washed three times with DMEM to wash out the compound, and recovery of SGK3 expression protein was analyzed by immunoblot analysis. (E–G) As in A except that CAMA-1 (E), ZR-75-1 (F), and JIMT-1 (G) cells were employed rather than HEK293 cells.
To study the impact of SGK3-PROTAC1 on phosphorylation of a physiological substrate, we monitored phosphorylation of NDRG1 at Thr346.[37] This site is also phosphorylated by Akt; therefore we treated cells with increasing doses of SGK3-PROTAC1 and cisSGK3-PROTAC1 for 8 h, with the addition of an Akt inhibitor (3 μM AZD5363) 1 h before lysis, to remove the impact of Akt phosphorylation of NDRG1. […] Concentrations of cisSGK3-PROTAC1 of above 1 μM were required to lower NDRG1 phosphorylation. […] This is consistent with previous work in HEK293 cells showing that inhibition of both Akt and SGK3 is required to block NDRG1 phosphorylation.[8],[37]
All cell treatments were carried out as described in figure legends, to a final DMSO concentration of 0.1% (v/v). Lysates were quantified. Immunoblotting was performed using standard procedures, described in brief below. Lysate concentration was quantified by Bradford Assay, and 10 μg of lysate was loaded in the LDS sample buffer for SDS-PAGE electrophoresis on Novex 4–12% Bis–Tris gels. Proteins were electrophoretically transferred onto nitrocellulose membranes (Amersham Protran 0.45 μm NC; GE Healthcare) at 80 V for 80 min on ice in transfer buffer. Transferred membranes were blocked with 5% (w/v) nonfat dry milk dissolved in TBS-T [20 mM Tris/HCl, pH 7.5, 150 mM NaCl, and 0.1% (v/v) Tween 20] at RT for 30 min, before incubation with the primary antibody overnight at 4 °C. The signal was produced with near-infrared secondary antibodies and detected using a Licor Biosciences Odyssey System, and the signal was quantified in Image Studio Lite.

Where [2] appears, read: 0.3 μM SGK3-PROTAC1, 1 μM 14H, 1 μM 308-R.
Where [3] appears, read: in the presence of 3 μM AZD5363, 0.3 μM SGK3-PROTAC1, 1 μM 14H, 1 μM 308-R.
The mark [4] stands for this setting: 0.1 μM, 3 μM AZD5363 1 h before lysis.

Where two headings read alike, the source gives them in different places.

Chain of MAPKAP-K2 (P49137 whole entry): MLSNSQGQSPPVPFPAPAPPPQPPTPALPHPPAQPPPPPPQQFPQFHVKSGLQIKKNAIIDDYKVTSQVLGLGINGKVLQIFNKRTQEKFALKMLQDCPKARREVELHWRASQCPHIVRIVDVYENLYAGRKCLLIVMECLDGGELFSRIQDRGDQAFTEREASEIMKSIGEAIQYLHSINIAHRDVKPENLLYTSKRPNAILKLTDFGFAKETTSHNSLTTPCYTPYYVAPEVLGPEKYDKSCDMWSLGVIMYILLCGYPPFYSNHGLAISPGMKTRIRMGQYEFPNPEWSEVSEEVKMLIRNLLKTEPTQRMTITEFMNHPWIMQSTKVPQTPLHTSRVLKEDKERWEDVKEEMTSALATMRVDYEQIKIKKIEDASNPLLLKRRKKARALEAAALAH
Chain of RIPK2 (O43353 whole entry): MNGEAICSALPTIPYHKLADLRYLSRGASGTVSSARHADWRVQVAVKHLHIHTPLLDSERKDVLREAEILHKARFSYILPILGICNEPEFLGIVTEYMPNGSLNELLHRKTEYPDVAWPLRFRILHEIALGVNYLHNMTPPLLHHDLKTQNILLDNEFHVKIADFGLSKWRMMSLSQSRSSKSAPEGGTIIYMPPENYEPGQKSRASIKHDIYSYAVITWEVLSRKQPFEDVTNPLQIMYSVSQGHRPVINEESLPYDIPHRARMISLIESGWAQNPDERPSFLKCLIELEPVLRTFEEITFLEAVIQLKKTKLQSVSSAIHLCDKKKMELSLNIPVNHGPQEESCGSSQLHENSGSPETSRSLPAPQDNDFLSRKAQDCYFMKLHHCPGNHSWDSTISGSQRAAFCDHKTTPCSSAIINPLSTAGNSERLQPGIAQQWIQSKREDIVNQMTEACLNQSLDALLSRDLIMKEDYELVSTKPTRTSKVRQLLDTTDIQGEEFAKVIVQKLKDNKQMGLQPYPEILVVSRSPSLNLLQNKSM
Chain of MKK1 (Q02750 whole entry): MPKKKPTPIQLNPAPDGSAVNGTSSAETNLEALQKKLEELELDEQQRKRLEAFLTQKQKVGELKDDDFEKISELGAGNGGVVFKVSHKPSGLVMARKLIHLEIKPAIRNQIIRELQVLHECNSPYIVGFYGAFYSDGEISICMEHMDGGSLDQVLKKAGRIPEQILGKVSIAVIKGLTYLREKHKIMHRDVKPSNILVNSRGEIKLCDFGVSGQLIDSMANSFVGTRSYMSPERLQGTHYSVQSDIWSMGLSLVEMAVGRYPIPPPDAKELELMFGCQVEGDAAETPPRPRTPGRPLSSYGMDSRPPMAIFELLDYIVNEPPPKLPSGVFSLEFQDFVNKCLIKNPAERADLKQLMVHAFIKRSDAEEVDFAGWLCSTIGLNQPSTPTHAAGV

As for `COc1ccc(Cl)c(S(=O)(=O)Nc2ccc(-c3nc(OC[C@H]4CNCCO4)c4c(C)n[nH]c4n3)cc2)c1` [290-R, reference compound], the remaining activity at 1 µM at MAPKAP-K2 was 87%; at MKK1, 66%; on RIPK2, 124%; at TAK1, 101%; at TSSK1, 98%.
In the case of `Cc1ccc(F)c(S(=O)(=O)Nc2ccc(-c3nc(OC[C@H]4CNCCO4)c4cn[nH]c4n3)cc2)c1` [308-R, reference compound], the remaining activity at 1 µM was determined as 83% at MAPKAP-K2; 62% at MKK1; 122% at RIPK2; 74% on TAK1; 94% on TSSK1. The pNDRG1 phosphorylation result in assay [1] (setting [2]) is “minimal effect”. In addition, the NDRG1 phosphorylation entry in assay [1] (setting [3]) is given as “markedly suppressed”.
As to `Cc1ccc(F)c(S(=O)(=O)Nc2ccc(-c3nc(OC[C@H]4CN(CCCCCCOCCOCCOCC(=O)N[C@H](C(=O)N5C[C@H](O)C[C@H]5C(=O)NCc5ccc(-c6scnc6C)cc5)C(C)(C)C)CCO4)c4cn[nH]c4n3)cc2)c1` [SGK3-PROTAC1], the remaining activity at 1 µM is 86% at MAPKAP-K2 (1 µM); 106% at MKK1 (1 µM); 88% at RIPK2 (1 µM); 108% at TAK1 (1 µM); 115% on TSSK1 (1 µM). In addition, the NDRG1 phosphorylation entry in assay [1] (setting [4]) was “reduced NDRG1 phosphorylation”; in assay [1] (setting [3]), “markedly suppressed”. Besides, the pNDRG1 phosphorylation entry in assay [1] (setting [2]) is on record as “minimal effect”.
With `Cc1ccc(F)c(S(=O)(=O)Nc2ccc(-c3nc(OC[C@H]4CN(CCCCCCOCCOCCOCC(=O)N[C@H](C(=O)N5C[C@@H](O)C[C@H]5C(=O)NCc5ccc(-c6scnc6C)cc5)C(C)(C)C)CCO4)c4cn[nH]c4n3)cc2)c1` [cisSGK3-PROTAC1], the remaining activity at 1 µM at MAPKAP-K2 (1 µM) came out at 92%; at MKK1 (1 µM) it was 102%; at RIPK2 (1 µM) it was 94%; on TAK1 (1 µM), 107%; at TSSK1 (1 µM), 113%. Besides, the NDRG1 phosphorylation result in assay [1] (setting [4]) is given as “no effect”. Moreover, in assay [1] (3 μM AZD5363 1 h before lysis), the “concentration required to lower NDRG1 phosphorylation” value is listed as “above 1 μM”.

As a reminder, the remaining activity is the signal under treatment as a percentage of the control signal.
